In ChEMBL document CHEMBL3885881, “DrugMatrix”:

Species: Rattus norvegicus
Assay: DrugMatrix - Regimen: Daily Repeat
Assay type: toxicity, organism-based, Sprague-Dawley
Set-up: regimen Daily Repeat, gender Male, age 6-8 weeks
Conditions: in vivo, po, route oral GAVAGE, vehicle 100 % WATER; for ABSOLUTE BASOPHIL / ABSOLUTE EOSINOPHIL / ABSOLUTE LYMPHOCYTE / ABSOLUTE MONOCYTE / ABSOLUTE SEGMENTED NEUTROPHIL / BASOPHIL / EOSINOPHIL / ERYTHROCYTE COUNT / HEMATOCRIT / LEUKOCYTE COUNT / LYMPHOCYTE / MEAN CORPUSCULAR HEMOGLOBIN / MEAN CORPUSCULAR HEMOGLOBIN CONCENTRATION / MEAN CORPUSCULAR VOLUME / MONOCYTE / NEUTROPHIL / NUCLEATED RED BLOOD CELLS / PLATELET COUNT: tissue Blood; for ALANINE AMINOTRANSFERASE / ALBUMIN / ALKALINE PHOSPHATASE / ASPARTATE AMINOTRANSFERASE / CARBON DIOXIDE / CHLORIDE / CHOLESTEROL / CREATINE PHOSPHOKINASE / CREATININE / LIPASE / POTASSIUM / TOTAL BILIRUBIN / TOTAL PROTEIN / BLOOD UREA NITROGEN: tissue Plasma
[1] = 0 mg/kg, 72 h, dose level Control, time 3 day
[2] = 0 mg/kg, 120 h, dose level Control, time 5 day
[3] = 44 mg/kg, 72 h, dose level Low, time 3 day
[4] = 44 mg/kg, 120 h, dose level Low, time 5 day

SMILES: NC(=O)c1ncn([C@@H]2O[C@H](CO)[C@@H](O)[C@H]2O)n1 [RIBAVIRIN]
- ABSOLUTE BASOPHIL [1]: 0 CELLS/uL
- ABSOLUTE EOSINOPHIL [1]: 40 CELLS/uL
- ABSOLUTE LYMPHOCYTE [1]: 13599.5 CELLS/uL
- ABSOLUTE MONOCYTE [1]: 239.33 CELLS/uL
- ABSOLUTE SEGMENTED NEUTROPHIL [1]: 1021.17 CELLS/uL
- BASOPHIL [1]: 0%
- EOSINOPHIL [1]: 0.33%
- ERYTHROCYTE COUNT [1]: 5.71 x10E6/uL
- HEMATOCRIT [1]: 36.35%
- LEUKOCYTE COUNT [1]: 14.9 x10E3/uL
- LYMPHOCYTE [1]: 91%
- MEAN CORPUSCULAR HEMOGLOBIN [1]: 24.62 pg
- MEAN CORPUSCULAR HEMOGLOBIN CONCENTRATION [1]: 38.65 G/DL
- MEAN CORPUSCULAR VOLUME [1]: 63.7 fL
- MONOCYTE [1]: 1.5%
- NEUTROPHIL [1]: 7.17%
- NUCLEATED RED BLOOD CELLS [1]: 0.33 /100WBC
- PLATELET COUNT [1]: 1225.5 x10E3/uL
- ALANINE AMINOTRANSFERASE [1]: 48.5 u/L
- ALBUMIN [1]: 4.18 G/DL
- ALKALINE PHOSPHATASE [1]: 390.83 u/L
- ASPARTATE AMINOTRANSFERASE [1]: 89 u/L
- CARBON DIOXIDE [1]: 24.83 mmol/L
- CHLORIDE [1]: 100.83 MEQ/L
- CHOLESTEROL [1]: 72.5 mg/dL
- CREATINE PHOSPHOKINASE [1]: 503 u/L
- CREATININE [1]: 0.2 mg/dL
- LIPASE [1]: 9.83 u/L
- POTASSIUM [1]: 6.16 MEQ/L
- TOTAL BILIRUBIN [1]: 0.2 mg/dL
- TOTAL PROTEIN [1]: 5.8 G/DL
- ABSOLUTE BASOPHIL [2]: 0 CELLS/uL
- ABSOLUTE EOSINOPHIL [2]: 21 CELLS/uL
- ABSOLUTE LYMPHOCYTE [2]: 14288.5 CELLS/uL
- ABSOLUTE MONOCYTE [2]: 205.33 CELLS/uL
- ABSOLUTE SEGMENTED NEUTROPHIL [2]: 968.5 CELLS/uL
- BASOPHIL [2]: 0%
- EOSINOPHIL [2]: 0.17%
- ERYTHROCYTE COUNT [2]: 5.83 x10E6/uL
- HEMATOCRIT [2]: 36.53%
- LEUKOCYTE COUNT [2]: 15.48 x10E3/uL
- LYMPHOCYTE [2]: 92%
- MEAN CORPUSCULAR HEMOGLOBIN [2]: 24.72 pg
- MEAN CORPUSCULAR HEMOGLOBIN CONCENTRATION [2]: 39.43 G/DL
- MEAN CORPUSCULAR VOLUME [2]: 62.68 fL
- MONOCYTE [2]: 1.33%
- NEUTROPHIL [2]: 6.5%
- NUCLEATED RED BLOOD CELLS [2]: 0.17 /100WBC
- PLATELET COUNT [2]: 1280.5 x10E3/uL
- ALANINE AMINOTRANSFERASE [2]: 50 u/L
- ALBUMIN [2]: 4.28 G/DL
- ALKALINE PHOSPHATASE [2]: 380.17 u/L
- ASPARTATE AMINOTRANSFERASE [2]: 82.67 u/L
- BLOOD UREA NITROGEN [2]: 15.33 mg/dL
- CARBON DIOXIDE [2]: 27.17 mmol/L
- CHLORIDE [2]: 100.33 MEQ/L
- CHOLESTEROL [2]: 60.67 mg/dL
- CREATINE PHOSPHOKINASE [2]: 441.5 u/L
- CREATININE [2]: 0.16 mg/dL
- LIPASE [2]: 9.17 u/L
- POTASSIUM [2]: 6.86 MEQ/L
- TOTAL BILIRUBIN [2]: 0.2 mg/dL
- TOTAL PROTEIN [2]: 6.12 G/DL
- ABSOLUTE BASOPHIL [3]: 0 CELLS/uL
- ABSOLUTE EOSINOPHIL [3]: 33.67 CELLS/uL
- ABSOLUTE LYMPHOCYTE [3]: 13109.33 CELLS/uL
- ABSOLUTE MONOCYTE [3]: 126 CELLS/uL
- ABSOLUTE SEGMENTED NEUTROPHIL [3]: 1164.33 CELLS/uL
- BASOPHIL [3]: 0%
- EOSINOPHIL [3]: 0.33%
- ERYTHROCYTE COUNT [3]: 5.44 x10E6/uL
- HEMATOCRIT [3]: 33.17%
- LEUKOCYTE COUNT [3]: 14.43 x10E3/uL
- LYMPHOCYTE [3]: 91.33%
- MEAN CORPUSCULAR HEMOGLOBIN [3]: 23.47 pg
- MEAN CORPUSCULAR HEMOGLOBIN CONCENTRATION [3]: 38.53 G/DL
- MEAN CORPUSCULAR VOLUME [3]: 60.97 fL
- MONOCYTE [3]: 0.67%
- NEUTROPHIL [3]: 7.67%
- NUCLEATED RED BLOOD CELLS [3]: 0 /100WBC
- PLATELET COUNT [3]: 1365.67 x10E3/uL
- ALANINE AMINOTRANSFERASE [3]: 53 u/L
- ALBUMIN [3]: 4.3 G/DL
- ALKALINE PHOSPHATASE [3]: 371.67 u/L
- ASPARTATE AMINOTRANSFERASE [3]: 93.67 u/L
- BLOOD UREA NITROGEN [3]: 13.67 mg/dL
- CARBON DIOXIDE [3]: 27.67 mmol/L
- CHLORIDE [3]: 101 MEQ/L
- CHOLESTEROL [3]: 71.33 mg/dL
- CREATINE PHOSPHOKINASE [3]: 286.67 u/L
- CREATININE [3]: 0.17 mg/dL
- LIPASE [3]: 9 u/L
- POTASSIUM [3]: 6.94 MEQ/L
- TOTAL BILIRUBIN [3]: 0.27 mg/dL
- TOTAL PROTEIN [3]: 5.97 G/DL
- ABSOLUTE BASOPHIL [4]: 0 CELLS/uL
- ABSOLUTE EOSINOPHIL [4]: 0 CELLS/uL
- ABSOLUTE LYMPHOCYTE [4]: 17320.33 CELLS/uL
- ABSOLUTE MONOCYTE [4]: 316 CELLS/uL
- ABSOLUTE SEGMENTED NEUTROPHIL [4]: 1397 CELLS/uL
- BASOPHIL [4]: 0%
- EOSINOPHIL [4]: 0%
- ERYTHROCYTE COUNT [4]: 5.46 x10E6/uL
- HEMATOCRIT [4]: 34.3%
- LEUKOCYTE COUNT [4]: 19.03 x10E3/uL
- LYMPHOCYTE [4]: 91%
- MEAN CORPUSCULAR HEMOGLOBIN [4]: 24.7 pg
- MEAN CORPUSCULAR HEMOGLOBIN CONCENTRATION [4]: 39.23 G/DL
- MEAN CORPUSCULAR VOLUME [4]: 62.87 fL
- MONOCYTE [4]: 1.67%
- NEUTROPHIL [4]: 7.33%
